Measurements from article PMC11697113, “The Hsc70 system maintains the synaptic SNARE protein SNAP-25 in an assembly-competent state and delays its aggregation [drawing 1]” (The Journal of Biological Chemistry, 2024).

Legend:
V438F Hsc70 = test: ATPase activity of V438F Hsc70; format: biochemical, human; settings: V438F Hsc70 2 μM, peptide 200 μM; binding site blocked; three independent experiments (Fig. S3)
Source text: Hsp70s consist of an nucleotide-binding domain (NBD) and a substrate-binding domain (SBD). Hsc70 works using an allosteric mechanism whereby substrate binding at the SBD stimulates the ATP hydrolysis rate at the nucleotide-binding domain. The basal ATPase rate of Hsp70 is low, usually about 0.05 ± 0.009 mol Pi/mol protein, and increases when it is stimulated by binding of a peptide to the canonical site in the SBD. We measured the ability of SNAP-25 peptides SNNP and SNCP to stimulate the ATPase rate of Hsc70 (Fig. 5A). SNNP and SNCP binding cause a 1.5-fold increase of the Hsc70 ATPase rate over basal (observed rates upon addition of SNNP and SNCP were 0.089 ± 0.008 and 0.080 ± 0.005, respectively). In order to confirm that peptides are indeed binding at the canonical binding site of Hsc70, we used the V438F mutant that blocks the binding site ([37]). […] The addition of CSPαJ stimulates the ATPase activity of Hsc70 ∼4-fold with and without peptides.
We performed ATPase assays to observe the activity of Hsc70 in the presence of SNAP25 peptides. Hsc70 (2 μM) and peptide (200 μM) were incubated in HMK buffer with 1 mM DTT for 15 min followed by addition of 1 mM ATP and incubation at 37 °C for 1 h. […] Absorbance readings were taken at 620 nm using a BioTek plate reader. […]

Hsc70 = target: T1, Hsc70 (Homo sapiens, UniProt P11142); test: SNAP-25 cellulose-bound peptide array probed with Hsc70; format: binding; settings: Hsc70 100 nM, 1 h, 25 °C; for Hsc70 binding of the SNAP-25 sequence in the peptide array: ADP/ATP, anti-Hsc70 chemiluminescence
T1 construct: 6X His-tag (TEV-cleavable) (cleaved yes); made in house; host or cells: E. coli Rosetta (DE3)
T1 sequence (P11142 whole entry): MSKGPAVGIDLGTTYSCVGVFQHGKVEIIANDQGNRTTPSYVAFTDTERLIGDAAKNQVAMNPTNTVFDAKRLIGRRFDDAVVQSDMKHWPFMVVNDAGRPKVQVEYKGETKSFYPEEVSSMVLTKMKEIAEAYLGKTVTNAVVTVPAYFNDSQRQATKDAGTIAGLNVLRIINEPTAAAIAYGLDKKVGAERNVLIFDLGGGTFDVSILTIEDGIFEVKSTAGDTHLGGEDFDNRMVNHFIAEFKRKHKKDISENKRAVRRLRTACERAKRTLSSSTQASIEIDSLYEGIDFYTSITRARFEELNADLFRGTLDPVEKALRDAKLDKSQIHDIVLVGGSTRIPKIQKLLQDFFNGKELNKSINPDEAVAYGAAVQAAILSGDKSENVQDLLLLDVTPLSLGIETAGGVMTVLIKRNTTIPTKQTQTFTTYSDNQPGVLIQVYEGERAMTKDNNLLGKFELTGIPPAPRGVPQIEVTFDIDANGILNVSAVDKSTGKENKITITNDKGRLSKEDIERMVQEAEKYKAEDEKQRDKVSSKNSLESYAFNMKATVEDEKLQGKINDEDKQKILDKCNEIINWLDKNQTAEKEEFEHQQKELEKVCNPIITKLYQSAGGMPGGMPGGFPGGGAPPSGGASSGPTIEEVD
Source text: To explore in greater depth the binding sites for Hsc70 in SNAP-25, we screened a cellulose-bound peptide array spanning the full SNAP-25 sequence with 13-residue long peptides, overlapping by ten residues, and probed with Hsc70 in the presence of a two-fold excess of ATP and […] of ADP. The binding of Hsc70 to sites in the array was then visualized with an anti-Hsc70 primary antibody and a horse radish peroxidase-tagged secondary antibody to enable visualization by chemiluminescence (Fig. 4A). To quantitatively analyze the array, we used ImageJ (https://imagej.net/ij/) and plotted the intensity under the area for each spot. […] One site is located in the SNN, one in the LOOP, and one in the LOOP-SNC region (called SNC site) (Fig. 4A) […] (Fig. 1C). […] The binding site in the LOOP region is very close to the cysteine residues that become palmitoylated as SNAP-25 moves to its membrane-localized state. It is formally possible that Hsc70 binds to SNAP-25 in the initial un-palmitoylated state and dissociates upon palmitoylation and association with the plasma membrane. However, it can be assumed that the binding of this region to Hsc70 is not implicated in the events directly preceding SNARE complex assembly, as it will not be accessible to the chaperone. Therefore, we posit that chaperone binding to the SNN and SNC regions plays a mechanistic role in facilitating productive SNAP-25 association with the other SNARE proteins.
B, quantification of the spots from Figure 4A using ImageJ (Hsc70 (gray) and Hsc70-CSPαJ (dark gray)). Signals corresponding to SNN, Loop and Loop-SNC peptides are marked in orange, blue, and green, respectively. Orange, blue, and green lines at the top of the graph indicate the SNN, Loop and SNC regions, respectively. C, schematic representation of SNAP-25 showing the Hsc70 binding sequences (SNN (orange), Loop (black), and Loop-SNC (green)) identified in the peptide array. […]
A peptide array of SNAP-25 was obtained from CEM corporation. […] The chemiluminescence was captured in a G-box (Syngene), and the images were analyzed using ImageJ.

Substance | enhancement of V438F Hsc70 ATPase activity (V438F Hsc70) | Hsc70 binding of the SNAP-25 sequence in the peptide array (Hsc70) | number of major Hsc70 binding sites on SNAP-25 (Hsc70; 13-residue peptides overlapping by ten, 20 μM ADP, 200 nM ATP, ECL, ImageJ, sites in SNN, LOOP and LOOP-SNC)
EREQMAISGGFIRR [SNCP, peptide … from the LOOP-SNC domain of SNAP-25] | did not enhance its ATPase activity | strong binding | –
RRMLQLVEESK [SNNP, peptide … from the SNN domain of SNAP-25] | did not enhance its ATPase activity | strong binding | –
synaptosomal-associated 25 kDa protein [SNAP-25] | – | – | Three major Hsc70 binding sites
